Read-outs that look alike come from different tables or passages of the source. One block for each compound: values may come before it.
What was measured:
[1] = system: polyphenol oxidase; assay: Effect of inhibiting polyphenol oxidase activity on dextran aggregation; assay type: cell-based; conditions: for effect on polyphenol oxidase induced inactivation: protease inhibitors added before polyphenol oxidase
Description: (§1) The standard rate assay published by Drake et al. (Drake D. et al. Infect. Immun. 56:1864-1872 (1988)) was used to study the interaction of S. sobrinus 6715 glucan-binding lectin with high molecular weight dextran. Briefly, bacterial suspensions were adjusted to an optical density of 0.75-0.90 in PBS, and 3-ml suspensions were added to test tubes (13×100 mm). Dextran T-2000 was added at a final concentration of 10 1μg/ml and the suspensions were vortexed for 5 sec. Control tubes received PBS. The decrease in optical density was continuously monitored spectrophotometrically for 5 min. Rate constants were obtained from the slopes of first-order plots of ln A/A0 (A=observed optical density; A0 optical density at time zero) versus time in minutes. Each sample was assayed at least three times.
Cells were suspended in phosphate buffer (20 mM, pH 6.5) and treated with either polyphenol oxidase (Worthington Biochemical Corporation, Freehold N.J., Lot 37A889) (1260 U/ml) for 1 h at 37° C. with rotary shaking (150 rev/min), then washed twice with cold PBS. Inhibitors (all from Sigma), when present, were added before polyphenol oxidase addition at the following concentrations: phenylmethylsulfonyl fluoride (PMSF) 500 μM; leupeptin, 500 μg/ml; ethylenediaminetetracetic acid (EDTA), 5 mM, potassium chloride 200 mM; polyvinylpyrrolidone, 500 μg/m; ascorbic acid, 3 mM; lactic acid, 10%.

[2] = system: polyphenol oxidase; assay: as above; assay type: cell-based; conditions: inhibitor concentration 2.5%
[3] = system: E. coli possessing type 1 fimbriae / Saccharomyces cerevisiae cells; assay: Adhesion of E. coli to yeast; assay type: cell-based
Description: Materials and methods were generally as described in the previous Examples, but slightly modified for observing adhesion by E. coli to yeast. […] Cells were washed 2× in PBS and suspended in PB. Cells were treated with polyphenol oxidase at 37° C., washed 2×, and resuspended in PBS. E. coli (5×10^8 cells) were incubated with 1×10^5 Saccharomyces cerevisiae cells in a 3 ml volume and rotated with an end-over-end motion at 37° C. for 30 min. Suspensions were harvested, washed 2× in PBS and resuspended in 300 μl PBS. Methyl-α-D-mannose was added to some reaction mixtures. Ten μl samples were withdrawn and placed on a microscope slide, heat-fixed, stained with crystal violet for 2 min, rinsed and dried. Preparations were viewed at 1000× with phase-contrast microscopy. Numbers of bacteria bound to yeast cells were tabulated.

[4] = system: type 1-fimbriated and P-fimbriated E. coli; assay: Growth inhibition of E. coli; assay type: cell-based; conditions: ampicillin 1 mg/ml to 0.015 mg/ml; polyphenol oxidase 1128 to 17.5 units/ml; asparaginase 20 to 0.31 units/ml; data not shown
Description: Similar and/or art recognized methods were used to monitor the effects of asparaginase on growth of other microbes including two strains of E. coli, S. pyogenes, Klebsiella pneumoniae, Bacillus cereus, and Proteus vulgaris. Both type 1-fimbriated and P-fimbriated E. coli were incubated with polyphenol oxidase, asparaginase, and ampicillin to test the ability of these agents to inhibit the growth of the bacteria.

[5] = system: B. fragilis (adhesin) / A. naeslundii ATCC 12104 (receptor); assay: Coaggregation B. fragilis / A. naeslundii ATCC 12104; conditions: B. fragilis (adhesin) enzyme treated; polyphenol oxidase 90 U/ml
[6] = system: S. sobrinus 6715 glucan-binding lectin; assay: Aggregation of S. sobrinus with high molecular weight dextran T-2000 (standard rate assay); assay type: cell-based, Streptococcus sobrinus; conditions: dextran T-10 1 mg/ml or glycogen 2.5 mg/ml before polyphenol oxidase treatment
Description: S. sobrinus 6715 was maintained on tryptic soy agar (Difco, Detroit, Mich.) and grown for experiments in Terleckyj's defined medium or tryptic soy broth (TSB) (Difco) pretreated with dextranase (1 mg of enzyme per g dry medium) and invertase (5 mg per g dry medium) for 2 h each in 5% CO2 at 37° C. for 16-18h. Cultures were centrifuged at 12,000×g for 10 min and washed twice with cold phosphate buffered saline (PBS, 20 mM, pH 7.2). Cells were suspended in PBS to an optical density of 0.8 (A540). Cultures grown in TSB were harvested and suspended in PBS and subsequently treated with dextranase for 1 h, followed by washing two times in PBS.
as §1, with “Each sample was assayed at least three times.” left out

[7] = known polyphenol oxidase inhibitors

Compound: O=C(O)CN(CCN(CC(=O)O)CC(=O)O)CC(=O)O [EDTA, ethylenediaminetetracetic acid]
Percent Inhibition of Polyphenol Oxidase Induced Reduction in Aggregation [1]: 100%
effect on the effects of polyphenol oxidase on glucan aggregation [1]: reduced the effects

Compound: [Cl-].[K+] [KCl, potassium chloride]
effect on the effects of polyphenol oxidase on glucan aggregation [1, 7]: reduced the effects
Percent Inhibition of Polyphenol Oxidase Induced Reduction in Aggregation [2]: 100%

Compound: COC1OC(CO)C(O)C(O)C1O [Methyl-α-mannose, Methyl-α-D-mannose]
effect of preincubating E. coli before polyphenol oxidase treatment [3]: eliminated polyphenol oxidase mediated reduction of adhesion
attachment of control cells to Saccharomyces ([3]; added to control cells): prevented their attachment

Compound: O=S(=O)(F)Cc1ccccc1 [PMSF, phenylmethylsulfonyl fluoride]
Percent Inhibition of Polyphenol Oxidase Induced Reduction in Aggregation ([1]; inhibitor concentration 500 μM): 0%
effect on polyphenol oxidase induced inactivation [1]: completely inhibited

Compound: CC1(C)S[C@@H]2[C@H](NC(=O)[C@H](N)c3ccccc3)C(=O)N2[C@H]1C(=O)O [ampicillin, reference compound]
inhibition of growth of P-fimbriated E. coli [4]: inhibited the growth
inhibition of growth of type 1-fimbriated E. coli [4]: inhibited the growth

effect on the effects of polyphenol oxidase on glucan aggregation [1, 7]: reduced the effects
Compound: O=C1O[C@H]([C@@H](O)CO)C(O)=C1O [ascorbic acid]
Percent Inhibition of Polyphenol Oxidase Induced Reduction in Aggregation ([1]; inhibitor concentration 3 mM): 100%

effect on the effects of polyphenol oxidase on glucan aggregation [1, 7]: reduced the effects
Compound: CC(O)C(=O)O (stereo not drawn) [lactic acid]
Percent Inhibition of Polyphenol Oxidase Induced Reduction in Aggregation ([1]; inhibitor concentration 10%): 92 (+/−8) Percent

Compound: CC(=O)N[C@@H](CC(C)C)C(=O)N[C@@H](CC(C)C)C(=O)N[C@H](C=O)CCCNC(=N)N [leupeptin]
Percent Inhibition of Polyphenol Oxidase Induced Reduction in Aggregation ([1]; inhibitor concentration 500 μg/ml): 0%
effect on polyphenol oxidase induced inactivation [1]: completely inhibited

Compound: Per: horseradish peroxidase
Inhibition % of coaggregation [5]: 11%

Compound: glycogen [reference compound]
effect of pre-incubating the bacteria with carbohydrate on the polyphenol oxidase inhibition of aggregation [6]: no effect

Source: patent US20020009436A1, “Methods and compositions for inhibiting adhesion by microorganisms” (priority 1999, published 2002)
